Reference: patent publication US10450293B2, “Chemokine CXCR4 and CCR5 receptor modulators and uses related thereto” (Emory University, priority 2014, dated 2019)
pEC50, pIC50: −log10 of the molar value.

Assays:
[1] = system: HIV-2 strain that utilized CXCR4 for entry; test: PBMC HIV-2 inhibition assay; type: cell-based
From the text: Compounds 4 inhibited this HIV-2 strain in PBMC cells in support of the CXCR4-based viral entry inhibition mechanism.

[2] = in vitro; type: cell-based; settings: human
[3] = target: T1, CCR5 (Homo sapiens, UniProt P51681); test: HeLa-C14:JRFL CD4-dependent cell-cell fusion assay; type: cell-based
T1 construct: expressed in transfected cells; host or cells: HeLa-C14
T1 sequence (P51681 whole entry, the tested form may be a part): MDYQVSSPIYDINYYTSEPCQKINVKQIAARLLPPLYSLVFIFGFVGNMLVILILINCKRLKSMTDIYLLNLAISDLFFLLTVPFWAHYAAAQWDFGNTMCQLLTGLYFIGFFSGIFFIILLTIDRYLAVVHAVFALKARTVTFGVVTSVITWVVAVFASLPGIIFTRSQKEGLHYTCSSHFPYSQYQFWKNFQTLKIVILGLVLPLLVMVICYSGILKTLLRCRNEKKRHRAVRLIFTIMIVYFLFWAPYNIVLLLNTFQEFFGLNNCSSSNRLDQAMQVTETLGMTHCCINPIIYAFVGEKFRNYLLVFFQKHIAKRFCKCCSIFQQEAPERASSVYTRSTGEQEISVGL
From the text: Cell-cell fusion assays measure specifically co-receptor mediated inhibition of gp120-induced fusion in the absence of other viral machinery, and these assays were used to explore the CCR5- and CXCR4-specific antiviral activity. A cell-cell fusion assay was constructed to simulate HIV-1 entry in the absence of other viral machinery. The assay measured fusion of effector cells expressing the JRFL envelope (CCR5-tropic/CD4 dependent) with HeLa-C14 target cells (expressing CD4, CCR5, and CXCR4) using a luciferase readout (FIG. 5A).

[4] = PBMC toxicity; type: cell-based; settings: read-out: PBMC - Toxicity TC50
[5] = system: wild type virus; test: organism not typed; type: cell-based; settings: read-out: Multi-cycle EC50 (WT)
[6] = system: VSV-G pseudovirus; test: microbe, parasite or virus in culture; type: cell-based
[7] = MAGI toxicity; settings: human, MAGI cells
[8] = system: HIV-1 IIIB; test: PBMC anti-HIV-1 assay, IIIB (CXCR4); type: cell-based; settings: Human immunodeficiency virus 1, IIIB, read-out: PBMC - HIV-1HIB (CXCR4) IC50
[9] = system: HIV-1 IIIB; test: HIV-1 MAGI assay, IIIB (CXCR4 / T-tropic); type: cell-based
Procedure: (§1) Bayesian statistical models were constructed using known CXCR4 and CCR5 active compounds from literature, and these models were used to virtually screen 5 million compounds in the Aldrich Marketplace Select library. The screen yielded 14 compounds of interest that were then tested for their anti-HIV activity for both tropisms in MAGI assay. Two compounds (FIG. 1, compounds 1 and 2) were active against both T and M tropic forms of HIV with IC50 values of ˜20 μM. These initial hits were followed-up by a second round of virtual screening based on similarity and sub-structure searching. Another 24 compounds were purchased from the same database and tested. […] This compound was then subjected to a series of biological evaluations to determine activity profile and confirm mechanism of action.

[10] = target: HIV-1 reverse transcriptase (Human immunodeficiency virus type 1 group M subtype B, UniProt P03366); test: biochemical; type: biochemical
[11] = system: HIV-1 Ba-L; test: HIV-1 MAGI assay, Ba-L (CCR5 / M-tropic); type: cell-based
Procedure: as §1

[12] = system: HIV-1 Ba-L; test: PBMC anti-HIV-1 assay, Ba-L (CCR5); type: cell-based; settings: Human immunodeficiency virus 1, BAL
[13] = target: T1, CCR5; test: 125I-MIP-1β displacement radio-ligand competition assay; type: binding
[14] = system: MAGI

Molecule: c1ccc(Cc2cn[nH]c2C2CCN(Cc3ccncc3)CC2)cc1 [Compound 4, 4-((4-(4-benzyl-1H-pyrazol-3-yl)piperidin-1-yl)methyl)pyridine]
- pIC50 ([1]; Human immunodeficiency virus 2, PBMC): 4.51
- inhibition of HIV-2 strain in PBMC cells ([1]; in words): inhibited
- CC50 [2]: > 200 µM
- pIC50 [3]: 4.44
- inhibition of JRFL envelope / HeLa-C14 cell-cell fusion ([3]; luciferase readout, in words): inhibited fusion
- CC50 [4]: > 100 µM
- pEC50 [5]: 6.05
- pEC50 ([6]; Pseudovirus): 5.89
- inhibition of VSV-G pseudovirus ([6]; in words): inhibited
- CC50 ([7]; MAGI -Toxicity TC50): > 300 µM
- CC50 ([7]; TC50, table of synthesized compounds): > 100 µM
- pIC50 [8]: 5.64
- pIC50 ([9]; Human immunodeficiency virus 1, IIIB, MAGI, Table 3, read-out: MAGI Assay IC50 CXCR4): 6.10
- pIC50 ([9]; Human immunodeficiency virus 1, IIIB, MAGI, read-out: MAGI - HIV-1HIB (CXCR4) IC50): 6.10
- pIC50 ([9]; Human immunodeficiency virus 1, IIIB, MAGI, table of synthesized compounds, read-out: X4-IC50): 6.11
- pIC50 ([9]; Human immunodeficiency virus 1, IIIB, MAGI, value stated for both tropisms, read-out: IC50 against T tropic HIV in MAGI assay): 5.42 to 6.10
- pIC50 ([9]; IIIB, T-tropic, read-out: HIV-1 MAGI IC50 IIIB): 4.60
- inhibition of isolated HIV-1 reverse transcriptase ([10]; in words): inhibited
- pIC50 ([10]; read-out: Isolated HIV-RT Inhibition IC50): 5.05
- pIC50 ([11]; Ba-L, M-tropic, read-out: HIV-1 MAGI IC50 Ba-L): 4.77
- pIC50 ([11]; Human immunodeficiency virus 1, BAL, MAGI, value stated for both tropisms, read-out: IC50 against M tropic HIV in MAGI assay): 5.42 to 6.10
- pIC50 ([11]; Human immunodeficiency virus 1, BAL, Table 3, read-out: MAGI Assay IC50 CCR5): 5.42
- pIC50 ([11]; Human immunodeficiency virus 1, BAL, read-out: MAGI - HIV-1Ba-L (CCR5) IC50): 5.42
- pIC50 ([11]; Human immunodeficiency virus 1, BAL, table of synthesized compounds, read-out: R5-IC50): 5.43
- pIC50 [12]: 5.64
- 125I-MIP-1β Displacement ([13]; at 100 μM): 38% at 100 μM/
- 125I-MIP-1β Displacement ([13]; at 1 mM): 88% at 1 mM
- displacement of 125I-MIP1β chemokine ligand from the receptor ([13]; in words): displaced

Molecule: 4-((4-(4-benzyl-5-methyl-1H-pyrazol-3-yl)piperidin-1-yl)methyl)-3-chloropyridine
- CC50 [14]: 164 µM
- pIC50 ([9]; table of synthesized compounds, read-out: X4-IC50): 5.51
- pIC50 ([11]; table of synthesized compounds, read-out: R5-IC50): 5.38
